Earlier results as cited in patent publication US20100172972A1, “ENTERIC COATED PHARMACEUTICAL COMPOSITIONS” (priority 2007, published 2010).
Counter-ions that a name gives are not always drawn.

Legend:
[1] = not given; remark: listed apart in the source

In the case of CNCC[C@H](Oc1cccc2ccccc12)c1cccs1 [Duloxetine hydrochloride], the “drug in the dosage hydrolyzed to 1-naphthol” value (pH 1.0) is given as 50%, the “drug in the dosage degrades to 1-naphthol” value (pH 2.0, in one hour) is given as 10% and the “time for 10% degradation” value (pH 4.0) is given as “up to 63 hours”.

In the case of CNCC[C@H](Oc1cccc2ccccc12)c1cccs1 [Duloxetine], the solubility in water [1] is given as “slightly soluble in water”.
